# Measured values from patent EP4667483A1, “HUMAN TRANSFERRIN RECEPTOR-BINDING PEPTIDE” (JCR Pharmaceuticals Co., Ltd., priority 2023, dated 2024).
# Numbered stars: 1 amine (or outer) side, 2 acyl side, 3 side chain; on linkers, the order of the positions; unused ones are H or OH. Bridge positions count the residues as written; N and C are the ends. Square brackets hold non-standard residues; d marks the D form. Peptide text beside a SMILES is read from it. * marks the point of attachment. Trp(1-CH2COOH) = N[C@@H](Cc1cn(CC(=O)O)c2ccccc12)C(=O)O; NMePhe(4-COOH) = CN[C@@H](Cc1ccc(C(=O)O)cc1)C(=O)O; X1 = O=C([C@H](Cc1cccc(C(=O)[*:3])c1)N[*:1])[*:2]; Nle(6-morpholino) = N[C@@H](CCCCN1CCOCC1)C(=O)O; Phe(3-COOH) = N[C@@H](Cc1cccc(C(=O)O)c1)C(=O)O; Trp(7-aza) = N[C@@H](Cc1c[nH]c2ncccc12)C(=O)O; NH(CH2CH2O)8Me = COCCOCCOCCOCCOCCOCCOCCOCCN*; NMePhe(3-Cl) = CN[C@@H](Cc1cccc(Cl)c1)C(=O)O; Trp(1-Me) = Cn1cc(C[C@H](N)C(=O)O)c2ccccc21; 3Pal(6-NH2) = Nc1ccc(C[C@H](N)C(=O)O)cn1; NMeW = CN[C@@H](Cc1c[nH]c2ccccc12)C(=O)O; NMeY = CN[C@@H](Cc1ccc(O)cc1)C(=O)O; Nva(3-Et) = CCC(CC)[C@H](N)C(=O)O; NMeF = CN[C@@H](Cc1ccccc1)C(=O)O; 4Pal = N[C@@H](Cc1ccncc1)C(=O)O; PEG4 = NCCOCCOCCOCCOCCC(=O)O; Carboxymethyl = O=C(O)C*
# How the values were obtained:
# [1] = target: T1, human transferrin receptor (hTfR) (Homo sapiens, UniProt P02786); experiment: SPR measurement under pH 6.0 conditions (Biacore T200, NTA chip, immobilized hTfR); format: binding; settings: SPR, pH 6.0; peptide with the linker named in the table; read-out: hTfR SPR pH6.0 KD
# [2] = target: T1, human transferrin receptor (hTfR); experiment: SPR measurement under pH 7.4 conditions (Biacore T200, CM3 chip, hTfR captured by His Tag antibody); format: binding; settings: SPR, pH 7.4; peptide with the linker named in the table; read-out: hTfR SPR pH7.4 KD
# T1 sequence (P02786 whole entry): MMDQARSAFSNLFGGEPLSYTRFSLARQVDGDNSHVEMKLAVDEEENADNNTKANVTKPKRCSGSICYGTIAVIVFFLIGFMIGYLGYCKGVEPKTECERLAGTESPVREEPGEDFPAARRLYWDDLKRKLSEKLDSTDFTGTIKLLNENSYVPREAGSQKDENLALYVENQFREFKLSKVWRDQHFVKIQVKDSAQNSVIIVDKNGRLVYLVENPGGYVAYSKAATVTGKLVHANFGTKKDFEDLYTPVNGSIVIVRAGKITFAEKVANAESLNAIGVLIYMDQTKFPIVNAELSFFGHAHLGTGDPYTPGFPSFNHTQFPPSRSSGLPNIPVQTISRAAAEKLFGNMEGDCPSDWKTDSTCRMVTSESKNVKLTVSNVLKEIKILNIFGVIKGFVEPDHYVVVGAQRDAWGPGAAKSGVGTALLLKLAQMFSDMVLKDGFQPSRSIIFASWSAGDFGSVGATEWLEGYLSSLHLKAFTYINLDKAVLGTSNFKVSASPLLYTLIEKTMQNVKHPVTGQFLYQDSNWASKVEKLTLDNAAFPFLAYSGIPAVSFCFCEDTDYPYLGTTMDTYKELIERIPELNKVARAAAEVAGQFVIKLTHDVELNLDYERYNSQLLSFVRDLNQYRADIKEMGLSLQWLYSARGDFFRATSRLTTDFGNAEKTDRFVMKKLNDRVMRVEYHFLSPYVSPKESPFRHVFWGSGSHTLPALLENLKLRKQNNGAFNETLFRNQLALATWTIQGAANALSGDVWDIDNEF
SMILES,Kd [1] [nM],Kd [2] [nM]
CCC(CC)[C@@H]1NC(=O)[C@H](Cc2ccc(OCC(=O)O)cc2)NC(=O)[C@H](Cc2ccc(O)cc2)NC(=O)[C@H](CC(N)=O)NC(=O)[C@H](Cc2c[nH]c3ncccc23)NC(=O)[C@H](C(C)C)NC(=O)[C@H](Cc2cccc(Cl)c2)N(C)C(=O)[C@H](C(C)C)NC(=O)[C@H](C)NC(=O)CSC[C@@H](C(=O)NCCOCCOCCOCCOCCC(N)=O)NC(=O)[C@H](Cc2ccc(O)cc2)N(C)C(=O)[C@H](Cc2cccc(C(=O)O)c2)NC(=O)[C@H](CCCNC(=N)N)NC(=O)[C@H](CCC(=O)NCCOCCOCCOCCOCCOCCOCCOCCOC)NC(=O)[C@H]([C@@H](C)CC)NC1=O [compound 106] ({CH2CO}-AV[NMePhe(3-Cl)]V[Trp(7-aza)]NYY(Carboxymethyl)[Nva(3-Et)]IE(NH(CH2CH2O)8Me)R[Phe(3-COOH)][NMeY]C[PEG4]-NH2; thioether N-15),90.1,26
CCC(CC)[C@@H]1NC(=O)[C@H](Cc2ccc(OCC(=O)O)cc2)NC(=O)[C@H](Cc2ccc(O)cc2)NC(=O)[C@H](CC(N)=O)NC(=O)[C@H](Cc2c[nH]c3ncccc23)NC(=O)[C@H](C(C)C)NC(=O)[C@H](Cc2cccc(Cl)c2)N(C)C(=O)[C@H](C(C)C)NC(=O)[C@H](C)NC(=O)CSC[C@@H](C(=O)NCCOCCOCCOCCOCCC(N)=O)NC(=O)[C@H](Cc2ccc(C(=O)O)cc2)N(C)C(=O)[C@H](Cc2cccc(C(=O)O)c2)NC(=O)[C@H](CCCNC(=N)N)NC(=O)[C@H](CCC(N)=O)NC(=O)[C@H]([C@@H](C)CC)NC1=O [compound 108] ({CH2CO}-AV[NMePhe(3-Cl)]V[Trp(7-aza)]NYY(Carboxymethyl)[Nva(3-Et)]IQR[Phe(3-COOH)][NMePhe(4-COOH)]C[PEG4]-NH2; thioether N-15),36.1,13.9
CCC(CC)[C@@H]1NC(=O)[C@H](Cc2ccc(OCC(=O)O)cc2)NC(=O)[C@H](Cc2ccc(O)cc2)NC(=O)[C@H](CC(N)=O)NC(=O)[C@H](Cc2c[nH]c3ccccc23)NC(=O)[C@H](C(C)C)NC(=O)[C@H](Cc2cccc(Cl)c2)N(C)C(=O)[C@H](C(C)C)NC(=O)[C@H](C)NC(=O)CSC[C@@H](C(=O)NCCOCCOCCOCCOCCC(N)=O)NC(=O)[C@H](Cc2ccc(C(=O)O)cc2)N(C)C(=O)[C@H](Cc2cccc(C(=O)NCCOCCOCCOCCOCCC(=O)O)c2)NC(=O)[C@H](CCCNC(=N)N)NC(=O)[C@H](CCC(N)=O)NC(=O)[C@H]([C@@H](C)CC)NC1=O [compound 110] ({CH2CO}-AV[NMePhe(3-Cl)]VWNYY(Carboxymethyl)[Nva(3-Et)]IQR[X1](PEG4)[NMePhe(4-COOH)]C[PEG4]-NH2; thioether N-15),12.8,7.46
CC[C@H](C)[C@@H]1NC(=O)[C@H](Cc2ccc(OC)cc2)NC(=O)[C@H](Cc2ccc(N)nc2)NC(=O)[C@H](CC(N)=O)NC(=O)[C@H](Cc2c[nH]c3ccccc23)NC(=O)[C@H](C(C)C)NC(=O)[C@H](Cc2cccc(Cl)c2)N(C)C(=O)[C@H](C(C)C)NC(=O)[C@H](C)NC(=O)CSC[C@@H](C(=O)NCCOCCOCCOCCOCCC(N)=O)NC(=O)[C@H](Cc2ccc(C(=O)O)cc2)N(C)C(=O)[C@H](Cc2cccc(C(=O)NCCOCCOCCOCCOCCC(=O)O)c2)NC(=O)[C@H](CCCNC(=N)N)NC(=O)[C@H](CCC(N)=O)NC(=O)[C@H]([C@@H](C)CC)NC1=O [compound 115] ({CH2CO}-AV[NMePhe(3-Cl)]VWN[3Pal(6-NH2)]Y(Me)IIQR[X1](PEG4)[NMePhe(4-COOH)]C[PEG4]-NH2; thioether N-15),12.6,1.84
CC[C@H](C)[C@@H]1NC(=O)[C@H](Cc2ccc(OCC(=O)O)cc2)NC(=O)[C@H](Cc2ccc(N)nc2)NC(=O)[C@H](CC(N)=O)NC(=O)[C@H](Cc2c[nH]c3ccccc23)NC(=O)[C@H](C(C)C)NC(=O)[C@H](Cc2cccc(Cl)c2)N(C)C(=O)[C@H](C(C)C)NC(=O)[C@H](C)NC(=O)CSC[C@@H](C(=O)NCCOCCOCCOCCOCCC(N)=O)NC(=O)[C@H](Cc2ccc(C(=O)O)cc2)N(C)C(=O)[C@H](Cc2cccc(C(=O)NCCOCCOCCOCCOCCC(=O)O)c2)NC(=O)[C@H](CCCNC(=N)N)NC(=O)[C@H](CCC(N)=O)NC(=O)[C@H]([C@@H](C)CC)NC1=O [compound 116] ({CH2CO}-AV[NMePhe(3-Cl)]VWN[3Pal(6-NH2)]Y(Carboxymethyl)IIQR[X1](PEG4)[NMePhe(4-COOH)]C[PEG4]-NH2; thioether N-15),35.2,8.49
CCC(CC)[C@@H]1NC(=O)[C@H](Cc2ccc(O)cc2)NC(=O)[C@H](Cc2ccc(O)cc2)NC(=O)[C@H](CC(N)=O)NC(=O)[C@H](Cc2c[nH]c3ccccc23)N(C)C(=O)[C@H](C(C)C)NC(=O)[C@H](Cc2ccccc2)N(C)C(=O)[C@H](C(C)C)NC(=O)[C@H](C)NC(=O)CSC[C@@H](C(=O)NCCOCCOCCOCCOCCC(N)=O)NC(=O)[C@H](Cc2ccc(O)cc2)N(C)C(=O)[C@H](Cc2cccc(C(=O)NCCOCCOCCOCCOCCC(=O)O)c2)NC(=O)[C@H](CCCNC(=N)N)NC(=O)[C@H](CCCCN)NC(=O)[C@H]([C@@H](C)CC)NC1=O [compound 120] ({CH2CO}-AV[NMeF]V[NMeW]NYY[Nva(3-Et)]IKR[X1](PEG4)[NMeY]C[PEG4]-NH2; thioether N-15),13.2,5.8
CCC(CC)[C@@H]1NC(=O)[C@H](Cc2ccc(O)cc2)NC(=O)[C@H](Cc2ccc(O)cc2)NC(=O)[C@H](CC(N)=O)NC(=O)[C@H](Cc2c[nH]c3ccccc23)N(C)C(=O)[C@H](C(C)C)NC(=O)[C@H](Cc2ccccc2)N(C)C(=O)[C@H](C(C)C)NC(=O)[C@H](C)NC(=O)CSC[C@@H](C(=O)NCCOCCOCCOCCOCCC(N)=O)NC(=O)[C@H](Cc2ccc(C(=O)O)cc2)N(C)C(=O)[C@H](Cc2cccc(C(=O)NCCOCCOCCOCCOCCC(=O)O)c2)NC(=O)[C@H](CCCNC(=N)N)NC(=O)[C@H](CCCCN)NC(=O)[C@H]([C@@H](C)CC)NC1=O [compound 122] ({CH2CO}-AV[NMeF]V[NMeW]NYY[Nva(3-Et)]IKR[X1](PEG4)[NMePhe(4-COOH)]C[PEG4]-NH2; thioether N-15),15.3,5.19

# Stronger by Kd [1], values ahead:
Kd [1] [nM],Kd [2] [nM],SMILES
11.1,6.99,CCC(CC)[C@@H]1NC(=O)[C@H](Cc2ccc(OCC(=O)O)cc2)NC(=O)[C@H](Cc2ccc(O)cc2)NC(=O)[C@H](CC(N)=O)NC(=O)[C@H](Cc2cn(CC(=O)O)c3ccccc23)NC(=O)[C@H](C(C)C)NC(=O)[C@H](Cc2cccc(Cl)c2)N(C)C(=O)[C@H](C(C)C)NC(=O)[C@H](C)NC(=O)CSC[C@@H](C(=O)NCCOCCOCCOCCOCCC(N)=O)NC(=O)[C@H](Cc2ccc(O)cc2)N(C)C(=O)[C@H](Cc2cccc(C(=O)O)c2)NC(=O)[C@H](CCCCN2CCOCC2)NC(=O)[C@H](CCCCN2CCOCC2)NC(=O)[C@H]([C@@H](C)CC)NC1=O [compound 109] ({CH2CO}-AV[NMePhe(3-Cl)]V[Trp(1-CH2COOH)]NYY(Carboxymethyl)[Nva(3-Et)]I[Nle(6-morpholino)][Nle(6-morpholino)][Phe(3-COOH)][NMeY]C[PEG4]-NH2; thioether N-15)
3.47,2.06,CCC(CC)[C@@H]1NC(=O)[C@H](Cc2ccc(OC)cc2)NC(=O)[C@H](Cc2ccc(O)cc2)NC(=O)[C@H](CC(N)=O)NC(=O)[C@H](Cc2c[nH]c3ccccc23)NC(=O)[C@H](C(C)C)NC(=O)[C@H](Cc2cccc(Cl)c2)N(C)C(=O)[C@H](C(C)C)NC(=O)[C@H](C)NC(=O)CSC[C@@H](C(=O)NCCOCCOCCOCCOCCC(N)=O)NC(=O)[C@H](Cc2ccc(C(=O)O)cc2)N(C)C(=O)[C@H](Cc2cccc(C(=O)NCCOCCOCCOCCOCCC(=O)O)c2)NC(=O)[C@H](CCCNC(=N)N)NC(=O)[C@H](CCC(N)=O)NC(=O)[C@H]([C@@H](C)CC)NC1=O [compound 111] ({CH2CO}-AV[NMePhe(3-Cl)]VWNYY(Me)[Nva(3-Et)]IQR[X1](PEG4)[NMePhe(4-COOH)]C[PEG4]-NH2; thioether N-15)
11.5,3.53,CCC(CC)[C@@H]1NC(=O)[C@H](Cc2ccc(OCC(=O)O)cc2)NC(=O)[C@H](Cc2ccc(O)cc2)NC(=O)[C@H](CC(N)=O)NC(=O)[C@H](Cc2c[nH]c3ccccc23)NC(=O)[C@H](C(C)C)NC(=O)[C@H](Cc2cccc(Cl)c2)N(C)C(=O)[C@H](C(C)C)NC(=O)[C@H](C)NC(=O)CSC[C@@H](C(=O)NCCOCCOCCOCCOCCC(N)=O)NC(=O)[C@H](Cc2ccc(O)cc2)N(C)C(=O)[C@H](Cc2cccc(C(=O)NCCOCCOCCOCCOCCC(=O)O)c2)NC(=O)[C@H](CCCNC(=N)N)NC(=O)[C@H](CCC(N)=O)NC(=O)[C@H]([C@@H](C)CC)NC1=O [compound 112] ({CH2CO}-AV[NMePhe(3-Cl)]VWNYY(Carboxymethyl)[Nva(3-Et)]IQR[X1](PEG4)[NMeY]C[PEG4]-NH2; thioether N-15)
10.6,1.33,CCC(CC)[C@@H]1NC(=O)[C@H](Cc2ccc(OC)cc2)NC(=O)[C@H](Cc2ccc(O)cc2)NC(=O)[C@H](CC(N)=O)NC(=O)[C@H](Cc2c[nH]c3ncccc23)NC(=O)[C@H](C(C)C)NC(=O)[C@H](Cc2cccc(Cl)c2)N(C)C(=O)[C@H](C(C)C)NC(=O)[C@H](C)NC(=O)CSC[C@@H](C(=O)NCCOCCOCCOCCOCCC(N)=O)NC(=O)[C@H](Cc2ccc(C(=O)O)cc2)N(C)C(=O)[C@H](Cc2ccncc2)NC(=O)[C@H](CCCNC(=N)N)NC(=O)[C@H](CCCCN2CCOCC2)NC(=O)[C@H]([C@@H](C)CC)NC1=O [compound 114] ({CH2CO}-AV[NMePhe(3-Cl)]V[Trp(7-aza)]NYY(Me)[Nva(3-Et)]I[Nle(6-morpholino)]R[4Pal][NMePhe(4-COOH)]C[PEG4]-NH2; thioether N-15)
5.22,1.57,CCC(CC)[C@@H]1NC(=O)[C@H](Cc2ccc(O)cc2)NC(=O)[C@H](Cc2ccc(O)cc2)NC(=O)[C@H](CC(N)=O)NC(=O)[C@H](Cc2cn(C)c3ccccc23)NC(=O)[C@H](C(C)C)NC(=O)[C@H](Cc2cccc(Cl)c2)N(C)C(=O)[C@H](C(C)C)NC(=O)[C@H](C)NC(=O)CSC[C@@H](C(=O)NCCOCCOCCOCCOCCC(N)=O)NC(=O)[C@H](Cc2ccc(O)cc2)N(C)C(=O)[C@H](Cc2ccncc2)NC(=O)[C@H](CCCNC(=N)N)NC(=O)[C@H](CCCCN)NC(=O)[C@H]([C@@H](C)CC)NC1=O [compound 127] ({CH2CO}-AV[NMePhe(3-Cl)]V[Trp(1-Me)]NYY[Nva(3-Et)]IKR[4Pal][NMeY]C[PEG4]-NH2; thioether N-15)
